Where “and” joins values, the source holds several entries; their conditions need not be identical. Equal entries are not always repeated. Inconclusive results and toxic doses are left out. Rule for the calls: active = survival T/C of 150% or more; inactive = T/C below 125% in these data.
Tested on: CD2F1 mice, L1210 leukemia ip, survival T/C
Assay: NCI In Vivo Anticancer Drug Screen. Data for tumor model L1210 Leukemia (intraperitoneal) in CD2F1 (CDF1) mice
Settings: higher = longer survival
Outline: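 Transplantable tumor in mice; compound-treated vs vehicle-treated groups. Read-out = treated/control ratio of the measured endpoint.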

[1] = endpoint: mean survival time, dose: 100.0 mg/kg/injection, schedule: Q01DX009 (ip), vehicle: saline with Tween-80
[2] = endpoint: mean survival time, dose: 100.0 mg/kg/injection, schedule: Q04DX003 (ip), vehicle: saline with Tween-80
[3] = endpoint: mean survival time, dose: 75.0 mg/kg/injection, schedule: Q01DX001 (ip), vehicle: other
[4] = endpoint: mean survival time, dose: 150.0 mg/kg/injection, schedule: Q01DX001 (ip), vehicle: other

Measured: T/C

O=C(SSC(=O)c1ccccc1)c1ccccc1
inactive: [1] 95 % of control | [2] 98 % of control | endpoint: mean survival time, dose: 200.0 mg/kg/injection, schedule: Q01DX009 (ip), vehicle: saline with Tween-80 103 % of control | endpoint: mean survival time, dose: 200.0 mg/kg/injection, schedule: Q04DX003 (ip), vehicle: saline with Tween-80 102 % of control | endpoint: mean survival time, dose: 400.0 mg/kg/injection, schedule: Q01DX009 (ip), vehicle: saline with Tween-80 91 % of control | endpoint: mean survival time, dose: 400.0 mg/kg/injection, schedule: Q04DX003 (ip), vehicle: saline with Tween-80 96 % of control

NC1=NCN2C(=N1)OC1C(O)C(CO)OC12 (centres undefined)
inactive: endpoint: mean survival time, dose: 1.56 mg/kg/injection, schedule: Q01DX009 (ip), vehicle: saline 94 % of control and 106 % of control | endpoint: mean survival time, dose: 3.12 mg/kg/injection, schedule: Q01DX009 (ip), vehicle: saline 91 % of control and 102 % of control | endpoint: mean survival time, dose: 6.25 mg/kg/injection, schedule: Q01DX009 (ip), vehicle: saline 91 % of control and 103 % of control | endpoint: mean survival time, dose: 12.5 mg/kg/injection, schedule: Q01DX009 (ip), vehicle: saline 91 % of control | endpoint: mean survival time, dose: 25.0 mg/kg/injection, schedule: Q01DX009 (ip), vehicle: saline 91 % of control and 100 % of control | endpoint: mean survival time, dose: 50.0 mg/kg/injection, schedule: Q01DX009 (ip), vehicle: saline 91 % of control and 97 % of control | endpoint: mean survival time, dose: 100.0 mg/kg/injection, schedule: Q01DX009 (ip), vehicle: saline 92 % of control and 96 % of control | endpoint: mean survival time, dose: 200.0 mg/kg/injection, schedule: Q01DX009 (ip), vehicle: saline 88 % of control and 100 % of control

N#C/C(=C\C1CC(Br)CCC1O)C1CCC([N+](=O)[O-])CC1 (centres undefined)
inactive: endpoint: mean survival time, dose: 50.0 mg/kg/injection, schedule: Q01DX009 (ip), vehicle: saline with Tween-80 86 % of control | [1] 88 % of control

CC(C)CCCC(C)C1CCC2C3CC(C(=O)O)C(C)(CCC(=O)O)C3CCC12C (centres undefined)
inactive: [3] 108 % of control | [4] 104 % of control

CN(C)C(=O)OC1CCCC1[N+](C)(C)CCCCCCCC[N+](C)(C)C1CCCC1OC(=O)N(C)C (centres undefined)
inactive: endpoint: mean survival time, dose: 0.19 mg/kg/injection, schedule: Q01DX009 (ip), vehicle: saline 104 % of control | endpoint: mean survival time, dose: 0.31 mg/kg/injection, schedule: Q04DX003 (ip), vehicle: saline 100 % of control | endpoint: mean survival time, dose: 0.39 mg/kg/injection, schedule: Q01DX009 (ip), vehicle: saline 104 % of control | endpoint: mean survival time, dose: 0.62 mg/kg/injection, schedule: Q04DX003 (ip), vehicle: saline 98 % of control | endpoint: mean survival time, dose: 0.78 mg/kg/injection, schedule: Q01DX009 (ip), vehicle: saline 98 % of control

Nn1cnc2ccccc2c1=O
inactive: endpoint: mean survival time, dose: 100.0 mg/kg/injection, schedule: Q01DX001 (ip), vehicle: saline 101 % of control | endpoint: mean survival time, dose: 200.0 mg/kg/injection, schedule: Q01DX001 (ip), vehicle: saline 102 % of control | endpoint: mean survival time, dose: 400.0 mg/kg/injection, schedule: Q01DX001 (ip), vehicle: saline 102 % of control

O=[N+]([O-])c1ccc(S(=O)(=O)Cc2ccccc2)c([N+](=O)[O-])c1
inactive: [3] 98 % of control | [4] 93 % of control | endpoint: mean survival time, dose: 300.0 mg/kg/injection, schedule: Q01DX001 (ip), vehicle: other 106 % of control

O=C(CCCN1CCN2Cc3[nH]c4ccccc4c3CC2C1)c1ccc(F)cc1 (centres undefined)
inactive: endpoint: mean survival time, dose: 25.0 mg/kg/injection, schedule: Q04DX003 (ip), vehicle: saline with Tween-80 101 % of control | endpoint: mean survival time, dose: 50.0 mg/kg/injection, schedule: Q04DX003 (ip), vehicle: saline with Tween-80 107 % of control | [2] 103 % of control

C=CCOCC(O)C[As](=O)(O)c1ccc(Cl)cc1 (centres undefined)
inactive: endpoint: mean survival time, dose: 6.25 mg/kg/injection, schedule: Q04DX003 (ip), vehicle: saline with Tween-80 109 % of control | endpoint: mean survival time, dose: 12.5 mg/kg/injection, schedule: Q04DX003 (ip), vehicle: saline with Tween-80 111 % of control

O=[N+]([O-])c1ccc2[nH]c3c(c2c1)CSCC3
inactive: endpoint: mean survival time, dose: 100.0 mg/kg/injection, schedule: Q01DX009 (ip), vehicle: Klucel (hydroxypropylcellulose) (HPC) 121 % of control | endpoint: mean survival time, dose: 200.0 mg/kg/injection, schedule: Q01DX009 (ip), vehicle: Klucel (hydroxypropylcellulose) (HPC) 97 % of control | endpoint: mean survival time, dose: 400.0 mg/kg/injection, schedule: Q01DX009 (ip), vehicle: Klucel (hydroxypropylcellulose) (HPC) 92 % of control

CCCC1(c2ccccc2)C(=O)NCNC1=O
inactive: endpoint: median survival time, dose: 25.0 mg/kg/injection, schedule: Q01DX005 (ip), vehicle: Klucel (hydroxypropylcellulose) (HPC) 101 % of control | endpoint: median survival time, dose: 50.0 mg/kg/injection, schedule: Q01DX005 (ip), vehicle: Klucel (hydroxypropylcellulose) (HPC) 97 % of control | endpoint: median survival time, dose: 100.0 mg/kg/injection, schedule: Q01DX005 (ip), vehicle: Klucel (hydroxypropylcellulose) (HPC) 97 % of control | endpoint: median survival time, dose: 200.0 mg/kg/injection, schedule: Q01DX005 (ip), vehicle: Klucel (hydroxypropylcellulose) (HPC) 94 % of control | endpoint: median survival time, dose: 400.0 mg/kg/injection, schedule: Q01DX005 (ip), vehicle: Klucel (hydroxypropylcellulose) (HPC) 104 % of control

CN(C)c1nc(N)cc(-c2ccncc2)n1
inactive: endpoint: mean survival time, dose: 100.0 mg/kg/injection, schedule: Q04DX002 (ip), vehicle: saline 96 % of control | endpoint: mean survival time, dose: 200.0 mg/kg/injection, schedule: Q04DX002 (ip), vehicle: saline 88 % of control
